Series [1] deals with T1, MB peptide (Bacillus subtilis, UniProt Q5BU39). In words: CD spectroscopy of MB oligomerization at different pH values. The series is classed as physicochemical. On the set-up: made in house. The settings on record: for ratio 208 nm / 222 nm: 154 mM NaF; for oligomer state: AUC and CD spectroscopy. An excerpt:
The MB monomer is mostly unfolded (~70% random coil), whereby the MB tetramer forms an α-helix. […] This pH sensitive switchability is reversible and occurs completely and suddenly from pH 6.0 to 5.4.
• Figure 1: Molecular model of the secondary protein structure of the helical MB peptide. Hydrophobicity of the peptide MB is also indicated by differential after folding into an ideal helix. Hydrophilic groups are indicated with arrows from above, hydrophobic groups from below. (A) The hydrophobic areas in which the binding takes place. (B) View of the backside. • Figure 2: CD spectroscopy of MB at different pH values. Circular ellipticity of 50 µM MB at 208 nm or 222 nm was measured against buffer pH in 10 mM citrate or 10 mM phosphate buffer with 154 mM NaF at 20°C. Citrate buffer was applied for the pH range from pH 6.5 to 4 and phosphate buffer for the pH ranges 1.5 to 4 and 6.5 to 10. MB structure was uninfluenced by buffer type, because CD spectra in citrate buffer were equal to spectra in phosphate buffer in the overlapping pH regions. The wavelengths 208 nm and 222 nm are characteristic for α-helices. […] (A) The snapshots of the same membrane repeatedly hybridised (left) and regenerated (right) show similar results after each of the six repetitions. […] (B) Plot of the normalized median intensities of each spot against number of incubations. • Figure 4: Mutation analysis of the amino acids important in oligomerization. […] The amino acids numeration is shown as small numbers above the wild type letters, the wt sequence can be found in the middle (black frame). Letters listed vertically above the wt sequence intensify the interactions, letters below weaken or abolish. The bigger the letter size the stronger the influence, linear to the distance of the intensity to the wt mean intensity in times of SD, starting with a minimum of ±2 SD. • Figure 5: Summary of the single-point mutation and length analysis of the MB oligomerization (A) Single-point mutations substantially (p<0.05) influencing the oligomerization were grouped and are represented by bars above or below the wild type sequence (black frame).The amino acids numeration is shown as small numbers above the wild type letters. Bars above the wild type sequence signify an enhanced oligomerization and below a weakened or abolished. The bar size reflects the strength of the mutation's influences on the oligomerization. […] Amino acid positions which were especially mutation-susceptible are marked by a + or -. (B) MB was systematically truncated with a step size of two amino acids from either one of the termini or simultaneously both termini. The shortest still with TAMRA-MB oligomerizing truncates are shown in black frames.
In order to assess the oligomerization properties of MB peptide circular dichroism spectroscopy (CD spectroscopy) was carried out according to standard procedures. The MB tetramerization was triggered by acidic pH values while remaining unchanged in basic conditions. Starting from basic pH 10 down to slightly acidic pH 6 the structure of MB was invariable at constant concentrations. Between pH 6 to 5.4 a rapid and tremendous increase in helicity occurred. Below pH 5.4 the pronounced α-helical MB structure remained constant down to pH 1.5 (see Fig. 2).

Series [2] can be described thus: physchem. The settings on record: aqueous buffer.
Series [3] addresses T1, MB peptide. In words: SPOT hybridization with TAMRA-MB: regeneration and reversibility. The series is classed as binding. Also noted: made in house; host or cells: chemical SPOT synthesis on membrane (MultiPep synthesizer). Particulars: 25 µM MB in 114 mM phosphate buffer with 50 mM NaF at pH 2.8, over night at 4°C; eight spots. As to the method: A SPOT-analysis was carried out in order to assess oligomerization of the MB peptide and its ability to tether molecules. This approach is analogous to that of affinity chromatography, in that a solid phase-bound synthesized MB peptide is used to bind and isolate a molecule of interest that is tagged with the protein affinity tag of the present invention.
The nitrocellulose membrane which contained the MB peptide was incubated, and thus hybridized, with TAMRA-MB (MB peptide to which the TAMRA colouring agent has been covalently attached). If the spots remained coloured after washing an oligomerisation was judged to have taken place. Solid-phase bound MB peptide was synthesized directly on the membranes. Whatman 50 filter paper (Whatman GmbH, Dassel, Germany) was used for membrane-bound peptide synthesis. SPOT positions with a diameter of 3 mm were defined by treating isolated locations on the membrane with coupling reagents. The membrane bound peptides were assembled by the SPOT synthesizer MultiPep (Intavis Bioanalytical Instruments AG, Köln, Germany) according to standard protocols.
Spotted membranes were washed and blocked according to standard protocols before hybridization. After rinsing once with incubation buffer membranes were hybridized with TAMRA-MB over night at 4 °C under agitation. Incubation results were documented by scanning the membranes with a HP scanjet at 600 dpi. […]

Series [4] deals with T1, MB peptide. The series is described as follows: Temperature dependence of MB peptide tetramerization. Also noted: made in house. The series is classed as physicochemical. As to the method: The tetramerization of MB peptide is however dependent on temperature and the salt concentration of the buffer. In general, the proportion of MB peptide forming a tetramer is reduced with increasing temperature. At approximately 70°C, only monomers of the MB peptide are present. As the salt concentration increases, the tetramerisation increases accordingly at neutral pH values.

Where no end group is shown, it is not given here.

As to “MKVTSEEKEQLSTAIDRMNEGLDAFIQLYNES [MB peptide]”, the “pH range of switch from monomer to α-helical tetramer (increase in helicity)” value in series [1] (50 µM MB, 10 mM citrate or 10 mM phosphate buffer with 154 mM NaF, 20°C) was in the range of 6 to 5.4. The random coil in series [1] (MB monomer) is ~ 70%. Also, the “ratio 208 nm / 222 nm” value in series [1] (pH<5.4, 50 µM MB, 20°C) was 0.93; in series [1] (pH>6, 50 µM MB, 20°C), 2.18. Also, the oligomer state entry is “converts completely into tetramer” in series [1] (same concentration (50 µM), pH <5.4) and “remains purely as monomer” in series [1] (up to 50 µM in phosphate buffer at pH 6.5). Further, the solubility in series [2] is at least 2200 µM. Moreover, the “consecutive incubations and regenerations with reproducible oligomerization” value in series [3] was “six”. The “temperature at which only monomers are present” value in series [4] was “approximately 70 °C”.

What is called solubility is how much of the substance goes into solution per volume.

For the origin of these results see patent publication EP2423217A1, “Peptide and protein affinity tag from mistic protein” (Forschungsverbund Berlin E.V., priority 2010, dated 2012).
